12 compounds from patent US20250345339A1, “DOSES AND REGIMENS OF HER2 INHIBITORS” (IAMBIC THERAPEUTICS, INC., priority 2024, published 2025) can be followed below.

“Also recorded” adds a separate entry of the source.

For orientation: IC50 means the concentration that inhibits the measured activity by half. A high value points to a need for much substance. What is called Kp is tissue or fluid exposure divided by exposure in the circulation. In general, TGI refers to how far tumour growth fell short of that in controls. A low value points to little slowing of growth.

In one data set the target is ERBB2-A775_G776insYVMA (Homo sapiens (Human), UniProt P04626, INS775YVMA). Kind of data set: HotSpot radiometric kinase activity assay, HER2 YVMA. Format: biochemical. On the procedure: (§1) The purpose of the wtERBB2, ERBB2-A775_G776insYVMA (ERBB2YVMA), wtEGFR biochemical assay was to evaluate the inhibition (% inhibition and IC50 values) of the small molecule inhibitors by using the “HotSpot” radiometric kinase activity assay. HotSpot assays monitor the […] of kinase substrate by the radioactive gamma phosphate of adenosine triphosphate (33P-ATP) during biochemical reactions. HotSpot assays was performed in steps upon completion of the kinase reaction: deposition of a reaction mixture aliquot onto P81 ion exchange paper, extensive washing of the aforementioned P81 paper using phosphoric acid to remove unbound radiolabeled 33P-ATP from the P81 paper, and finally visualization and quantification of the dried P81 paper utilizing a phosphoimager. […] Typical reaction solutions (10 μL final reaction volume) contained the following buffer conditions: 20 mM Hepes (pH 7.5), 10 mM MgCl2, 1 mM EGTA, 0.01% Brij35, 0.02 mg/mL BSA, 0.1 mM Na3VO4, 2 mM DTT, 1% DMSO. The assay was primed by preparing a fresh 0.2 mg/mL solution of pEY (Sigma Cat: P7244) substrate in the reaction buffer and supplementing that solution with […] of MnCl2 as substrate cofactor (Sigma Cat: M9522). The kinase of interest was then added to the solution at the appropriate concentration (30 nM wtERBB2 from, or 20 nM ERBB2YVMA, or 4 nM wtEGFR) and gently mixed prior to delivery of compound in 100% DMSO by acoustic dispensing (Beckman Echo550). Compound, Kinase, and substrate were allowed to incubate for 20 minutes at room temperature prior to the initiation of the reaction by addition of 33P-ATP (PerkinElmer Cat: NEG602, final conc 10 μM). […] IC50 determinations were made from a plot of kinase activity as a function of inhibitor concentration fit to the 4-parameter IC50 equation with the enzyme concentration held constant using GraphPad Prism (San Diego).

Another data set has as its target wtERBB2 (Homo sapiens (Human), UniProt P04626). Kind of data set: HotSpot radiometric kinase activity assay, HER2 WT. The class given is biochemical. On the procedure: as §1
For a further data set, the target named is wtEGFR (Homo sapiens (Human), UniProt P00533). Kind of data set: HotSpot radiometric kinase activity assay, EGFR WT. Format: biochemical. On the procedure: as §1
The next data set addresses EGFR (Homo sapiens (Human), UniProt P00533). The data set is described as follows: Enzyme inactivation kinetics, EGFR. The class given is biochemical. Conditions: Table 23.
A short description of another data set: in vivo. As to conditions: mouse, tumor/plasma.
Data set [1] relates to BT-474 breast cancer cell line. The data set is described as follows: BT-474 xenograft tumor growth inhibition. The class given is in vivo, mouse. Conditions: clinical reference compounds. On the procedure:
The tumor cells were routinely sub-cultured after confluence by trypsin-EDTA treatment, not to exceed 4-5 passages. The cells growing in an exponential growth phase were harvested and counted for tumor inoculation.
Tumor size and body weight measurement was conducted twice weekly.

Another data set deals with HCC1954. Kind of data set: HCC1954 xenograft tumor growth inhibition. Format: in vivo, mouse. On the procedure: HCC1954 cells were thawed and cultured in vitro, and the HCC1954 cells were harvested for in vivo inoculation. After one week of acclimation, 16 female 6-8 weeks-old mice were used. After inoculation, the tumor volume and body weight of the mice were measured three times per week. When the average tumor volume reaches about 200 mm^3, mice were randomly grouped into 2 groups according to the tumor volume and body weight. Test drugs were administrated immediately afterward. Tumor volume and body weight measurements were taken twice a week. At the end of the study, tumor and plasma samples were collected. The mouse grouping and test material treatment for tumor growth inhibition is listed Table 7. Tumor size and body weight measurement were conducted twice weekly. At the end of study, Group 1 and Group 2 were split into 2 sub-groups, dosed and samples collected as described Table 8. At the end of treatment, tumor samples were collected for pharmacodynamic (PD) analysis.

The next data set concerns BaF3 P95Her2. As to conditions: 100 mg/kg PO daily for 20 days.
A further data set concerns MDAMB453. Kind of data set: MDAMB453 breast cancer model. As to conditions: 100 mg/kg PO daily for 14 days.
For a further data set, the system named is KYSE410. Kind of data set: KYSE410 tumor model (HER2+ and KRAS G12C). Conditions: Compound 5 at 250 mg/kg.
In data set [2] the test system is NCI-N87-luciferase gastric cancer cell line. Kind of data set: Intracranial NCI-N87-luciferase tumor model. As to conditions: for Tumor Growth Inhibition: intracranial NCI-N87, 100 mg/kg QD.
The next data set relates to JIMT-1. Kind of data set: JIMT-1 breast tumor model. As to conditions: 20/15 mg/kg PO daily for 9 then 12 days.

wtERBB2, sequence (P04626 23-1255): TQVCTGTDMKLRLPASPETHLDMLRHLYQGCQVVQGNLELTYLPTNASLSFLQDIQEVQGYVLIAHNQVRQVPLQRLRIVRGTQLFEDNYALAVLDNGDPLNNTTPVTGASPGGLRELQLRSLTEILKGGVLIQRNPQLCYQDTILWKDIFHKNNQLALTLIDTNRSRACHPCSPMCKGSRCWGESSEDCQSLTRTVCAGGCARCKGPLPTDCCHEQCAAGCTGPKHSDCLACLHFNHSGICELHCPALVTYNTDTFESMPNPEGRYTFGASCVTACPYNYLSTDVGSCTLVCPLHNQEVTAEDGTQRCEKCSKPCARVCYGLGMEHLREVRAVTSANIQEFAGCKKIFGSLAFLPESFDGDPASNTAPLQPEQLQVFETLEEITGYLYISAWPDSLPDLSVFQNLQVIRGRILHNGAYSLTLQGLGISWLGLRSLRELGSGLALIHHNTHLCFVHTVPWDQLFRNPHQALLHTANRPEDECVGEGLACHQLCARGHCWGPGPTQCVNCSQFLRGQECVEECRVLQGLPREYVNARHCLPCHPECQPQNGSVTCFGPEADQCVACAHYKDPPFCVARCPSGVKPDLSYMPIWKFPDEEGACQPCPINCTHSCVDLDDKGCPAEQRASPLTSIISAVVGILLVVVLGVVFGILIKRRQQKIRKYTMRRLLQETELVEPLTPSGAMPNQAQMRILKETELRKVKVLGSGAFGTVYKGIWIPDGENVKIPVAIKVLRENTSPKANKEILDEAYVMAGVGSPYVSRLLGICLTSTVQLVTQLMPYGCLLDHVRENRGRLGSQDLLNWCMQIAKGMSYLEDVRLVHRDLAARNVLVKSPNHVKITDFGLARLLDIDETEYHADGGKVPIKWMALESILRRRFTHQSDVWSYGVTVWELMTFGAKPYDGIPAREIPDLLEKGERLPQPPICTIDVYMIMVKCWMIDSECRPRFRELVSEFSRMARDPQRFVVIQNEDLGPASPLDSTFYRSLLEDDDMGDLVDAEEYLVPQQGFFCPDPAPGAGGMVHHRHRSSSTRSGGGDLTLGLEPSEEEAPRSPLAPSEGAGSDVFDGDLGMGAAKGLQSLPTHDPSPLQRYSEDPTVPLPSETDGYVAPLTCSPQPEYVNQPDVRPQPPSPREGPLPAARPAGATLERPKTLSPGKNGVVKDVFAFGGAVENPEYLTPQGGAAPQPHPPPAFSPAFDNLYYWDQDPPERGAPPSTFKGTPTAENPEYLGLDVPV
wtEGFR, sequence (P00533 25-1210): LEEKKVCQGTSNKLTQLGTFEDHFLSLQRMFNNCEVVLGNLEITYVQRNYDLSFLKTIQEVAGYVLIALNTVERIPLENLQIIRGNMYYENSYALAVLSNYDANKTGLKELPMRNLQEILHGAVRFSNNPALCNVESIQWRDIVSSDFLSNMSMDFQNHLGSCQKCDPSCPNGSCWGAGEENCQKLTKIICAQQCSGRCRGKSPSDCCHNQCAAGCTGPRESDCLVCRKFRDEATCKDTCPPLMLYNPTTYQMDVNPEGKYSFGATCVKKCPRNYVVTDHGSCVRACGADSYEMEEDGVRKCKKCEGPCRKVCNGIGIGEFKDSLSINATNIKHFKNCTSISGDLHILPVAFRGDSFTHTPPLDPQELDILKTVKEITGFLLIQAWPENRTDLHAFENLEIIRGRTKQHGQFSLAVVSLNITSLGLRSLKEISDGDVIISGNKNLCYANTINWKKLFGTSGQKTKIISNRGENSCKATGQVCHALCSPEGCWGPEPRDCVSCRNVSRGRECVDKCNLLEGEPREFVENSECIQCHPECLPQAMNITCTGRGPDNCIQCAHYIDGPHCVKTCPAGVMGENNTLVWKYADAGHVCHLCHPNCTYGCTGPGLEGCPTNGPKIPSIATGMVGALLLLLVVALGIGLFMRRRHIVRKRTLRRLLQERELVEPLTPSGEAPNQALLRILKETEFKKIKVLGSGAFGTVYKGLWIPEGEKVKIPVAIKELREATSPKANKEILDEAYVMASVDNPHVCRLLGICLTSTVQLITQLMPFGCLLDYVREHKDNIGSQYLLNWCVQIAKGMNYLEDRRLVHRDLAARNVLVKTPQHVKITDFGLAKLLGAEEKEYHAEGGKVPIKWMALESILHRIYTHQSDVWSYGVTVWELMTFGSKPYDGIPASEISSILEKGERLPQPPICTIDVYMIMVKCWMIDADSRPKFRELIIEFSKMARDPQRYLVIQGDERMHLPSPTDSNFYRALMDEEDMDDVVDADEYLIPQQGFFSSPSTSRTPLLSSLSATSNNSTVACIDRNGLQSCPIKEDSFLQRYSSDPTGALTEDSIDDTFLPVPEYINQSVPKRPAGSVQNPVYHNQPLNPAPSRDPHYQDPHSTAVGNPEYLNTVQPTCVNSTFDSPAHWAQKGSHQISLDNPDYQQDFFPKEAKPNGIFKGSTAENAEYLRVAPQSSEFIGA
EGFR, sequence (P00533 25-1210): as above
ERBB2-A775_G776insYVMA, sequence (P04626 other isoform, or with tags, fused parts or gaps del 1-675/ins YVMA behind 775 limits assumed): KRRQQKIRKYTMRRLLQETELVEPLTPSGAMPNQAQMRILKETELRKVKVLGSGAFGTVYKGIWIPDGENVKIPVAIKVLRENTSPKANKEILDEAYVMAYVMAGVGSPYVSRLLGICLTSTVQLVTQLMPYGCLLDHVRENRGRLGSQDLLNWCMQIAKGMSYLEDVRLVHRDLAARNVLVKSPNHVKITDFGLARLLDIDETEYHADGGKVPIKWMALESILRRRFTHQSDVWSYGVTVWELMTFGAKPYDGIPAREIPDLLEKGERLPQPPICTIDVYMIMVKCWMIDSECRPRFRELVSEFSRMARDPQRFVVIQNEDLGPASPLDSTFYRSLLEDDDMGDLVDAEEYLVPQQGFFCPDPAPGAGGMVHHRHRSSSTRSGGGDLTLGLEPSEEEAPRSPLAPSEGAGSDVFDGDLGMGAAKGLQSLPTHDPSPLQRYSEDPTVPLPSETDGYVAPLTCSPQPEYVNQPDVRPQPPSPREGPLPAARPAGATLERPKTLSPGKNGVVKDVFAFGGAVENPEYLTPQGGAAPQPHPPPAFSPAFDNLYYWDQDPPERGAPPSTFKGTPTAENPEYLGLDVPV

In the case of `Cc1cc(Nc2ncnn3ccc(C4CN(C(=O)/C=C/CN(C)C)C4)c23)ccc1Oc1ccn2ncnc2c1` [Compound 1, (E)-1-(3-(4-((4-([1,2,4]triazolo[1,5-a]pyridin-7-yloxy)-3-methylphenyl)amino)pyrrolo[2,1-f][1,2,4]triazin-5-yl)azetidin-1-yl)-4-(dimethylamino)but-2-en-1-one], the IC50 against ERBB2-A775_G776insYVMA, against wtERBB2 and against wtEGFR was below 200 nM throughout.

With `C=CC(=O)N1CCN(c2ccn3ncnc(Nc4ccc(Oc5ccn6ncnc6c5)c(C)c4)c23)CC1` [Compound 3, 1-(4-(4-((4-([1,2,4]triazolo[1,5-a]pyridin-7-yloxy)-3-methylphenyl)amino)pyrrolo[2,1-f][1,2,4]triazin-5-yl)piperazin-1-yl)prop-2-en-1-one], the IC50 against ERBB2-A775_G776insYVMA, against wtERBB2 and against wtEGFR was below 200 nM throughout.

As for `C=CC(=O)N1CCC(c2ccn3ncnc(Nc4ccc(Oc5ccn6ncnc6c5)c(C)c4)c23)CC1` [Compound 4, 1-(4-(4-((4-([1,2,4]triazolo[1,5-a]pyridin-7-yloxy)-3-methylphenyl)amino)pyrrolo[2,1-f][1,2,4]triazin-5-yl)piperidin-1-yl)prop-2-en-1-one], the IC50 against ERBB2-A775_G776insYVMA, on wtERBB2 and on wtEGFR was below 200 nM in each case.

On to `C=CC(=O)N1CC(c2ccn(-c3ccn4ncnc(Nc5ccc(Oc6ccn7ncnc7c6)c(C)c5)c34)n2)C1` [Compound 8, 1-(3-(1-(4-((4-([1,2,4]triazolo[1,5-a]pyridin-7-yloxy)-3-methylphenyl)amino)pyrrolo[2,1-f][1,2,4]triazin-5-yl)-1H-pyrazol-3-yl)azetidin-1-yl)prop-2-en-1-one], for which the concentration for half-maximal inhibition (IC50) against ERBB2-A775_G776insYVMA, against wtERBB2 and on wtEGFR was below 200 nM each time.

For the compound `Cc1cc(Nc2ncnn3ccc(C4CCCN(C(=O)/C=C/CN(C)C)CC4)c23)ccc1Oc1ccn2ncnc2c1` (centres unmarked) [Compound 12, (E)-1-(4-(4-((4-([1,2,4]triazolo[1,5-a]pyridin-7-yloxy)-3-methylphenyl)amino)pyrrolo[2,1-f][1,2,4]triazin-5-yl)azepan-1-yl)-4-(dimethylamino)but-2-en-1-one], the half-maximal inhibitory concentration (IC50) against ERBB2-A775_G776insYVMA and against wtERBB2 was below 200 nM in each case.

On to `Cc1cc(Nc2ncnn3ccc(C4CC5(C4)CN(C(=O)/C=C/CN(C)C)C5)c23)ccc1Oc1ccn2ncnc2c1` [Compound 13, (E)-1-(6-(4-((4-([1,2,4]triazolo[1,5-a]pyridin-7-yloxy)-3-methylphenyl)amino)pyrrolo[2,1-f][1,2,4]triazin-5-yl)-2-azaspiro[3.3]heptan-2-yl)-4-(dimethylamino)but-2-en-1-one], for which the half-inhibitory concentration (IC50) on ERBB2-A775_G776insYVMA and on wtERBB2 was below 200 nM throughout.

On wtERBB2, `Cc1cc(Nc2ncnn3ccc(-c4cnn(CCNC(=O)/C=C/CN(C)C)c4)c23)ccc1Oc1ccn2ncnc2c1` [Compound 14, (E)-N-(2-(4-(4-((4-([1,2,4]triazolo[1,5-a]pyridin-7-yloxy)-3-methylphenyl)amino)pyrrolo[2,1-f][1,2,4]triazin-5-yl)-1H-pyrazol-1-yl)ethyl)-4-(dimethylamino)but-2-enamide] registered an IC50 below 200 nM.

As for `Cc1noc2ccc(C(=O)Nc3ccc4[nH]c(CN5CCCC5)nc4c3)cc12` [ELVN-002], at EGFR, the “EGFR kinact (s − 1)” value is listed as 1.1 × 10^−2 s − 1, the “HER2 vs. EGFR Kinetic Selectivity” value is reported as 47 and the Ki is 680 nM.

Regarding `C=CC(=O)N1CCC(Oc2cc3c(Nc4ccc(Cl)c(Cl)c4F)ncnc3cc2OC)CC1` [Poziotinib], the Kp at 4 h in “in vivo” was found to be 0.36.

As to `CCOc1cc2ncnc(Nc3ccc(Oc4ccn5ncnc5c4)c(C)c3)c2cc1NC(=O)/C(F)=C/[C@H]1CCCN1C` [SPH5030], in data set [1], the “TR compared with Compound 5” value is listed as “significantly less TR than Compound 5”.

As to `Cc1cc(Nc2ncnc3ccc(NC4=NC(C)(C)CO4)cc23)ccc1Oc1ccn2ncnc2c1` [Tucatinib], the “TR compared with Compound 5” value in data set [1] was “significantly less TR than Compound 5”. Also, the “TGI (tumor growth inhibition)” value with HCC1954 (HCC1954, 100 mg/kg PO daily for 21 days) was 30%; with BaF3 P95Her2 it was 99%; in the data set with MDAMB453, 90%. Also, in the data set with HCC1954 (HCC1954, comparator), the anti-tumor effect entry is on record as “tumor stasis”. The “anti-tumor effect (FIG. 29)” value in the data set on HCC1954 (HCC1954 xenograft, Compound 5 100 and 250 mg/kg, tucatinib 100 mg/kg) was “did not achieve tumor stasis”. In the data set on KYSE410, the “anti-tumor activity, in words” value is “ineffective; also recorded: weak or no activity; also recorded: weak/no activity”. The “antitumor effect in intracranial model, in words” value in data set [2] (NCI-N87-luc intracranial xenograft) is reported as “only modest single agent effect”. In addition, the “Tumor Growth Inhibition” value in data set [2] (Day 5) was 9%; in data set [2] (Day 9), −11%; in data set [2] (Day 13), −14%; in data set [2] (Day 16), 18%; in data set [2] (Day 19), 45%; in [2] (Day 23), 25%. The “Tumor Growth Inhibition” value in data set [2] (Day 26) amounted to 30%.

`Cc1nc(NC(=O)N2CCC[C@H]2C(N)=O)sc1-c1ccnc(C(C)(C)C(F)(F)F)c1` [alpilisib] came in with a TGI with JIMT-1 of 64%.
